Results from ChEMBL document CHEMBL5634077, “Recent advances in 1,2,3- and 1,2,4-triazole hybrids as antimicrobials and their SAR: A critical review” (2023).
Values after ≈ are worked out from the molar mass of the structure shown. Each block holds one compound with its values, some of them ahead of it.

What was measured:
[1] = tested on: Staphylococcus aureus; assay: Antibacterial activity against Staphylococcus aureus ATCC 29213 assessed as reduction in bacterial growth by micro-broth dilution method; assay type: functional
[2] = tested on: Aspergillus fumigatus; assay: […] activity against Aspergillus fumigatus NCIM 2081 assessed as reduction in […] by micro-broth dilution method; assay type: functional
[3] = tested on: Escherichia coli; assay: Antibacterial activity against Escherichia coli ATCC 8739 assessed as reduction in bacterial growth by micro-broth dilution method; assay type: functional
[4] = tested on: Candida albicans; assay: Antifungal activity against Candida albicans NCIM 2087 assessed as fungal growth inhibition; assay type: functional
[5] = tested on: Pseudomonas aeruginosa; assay: Antibacterial activity against Pseudomonas aeruginosa MCCB 0035 assessed as reduction in bacterial growth by micro-broth dilution method; assay type: functional
[6] = tested on: Aspergillus niger; assay: […] activity against Aspergillus niger NCIM 2191 assessed as reduction in […] by micro-broth dilution method; assay type: functional
[7] = tested on: Staphylococcus aureus; assay: Antibacterial activity against Staphylococcus aureus assessed as diameter of inhibition zone; assay type: functional
[8] = tested on: Candida albicans; assay: Antifungal activity against Candida albicans SC5314 assessed as reduction in fungal growth incubated for 24 hrs by NCCLS based assay; assay type: functional
[9] = tested on: Trichophyton rubrum; assay: Antifungal activity against Trichophyton rubrum assessed as reduction in fungal growth incubated for 5 to 7 days by NCCLS based assay; assay type: functional; details: time 5-7 day
[10] = tested on: Candida albicans; assay: Antifungal activity against Candida albicans Y0109 assessed as reduction in fungal growth incubated for 24 hrs by NCCLS based assay; assay type: functional
[11] = tested on: Nannizzia gypsea; assay: Antifungal activity against Microsporum gypseum assessed as reduction in fungal growth incubated for 5 to 7 days by NCCLS based assay; assay type: functional; details: time 5-7 day
[12] = tested on: Cryptococcus neoformans; assay: Antifungal activity against Cryptococcus neoformans 32609 assessed as reduction in fungal growth incubated for 72 hrs by NCCLS based assay; assay type: functional
[13] = tested on: Aspergillus fumigatus; assay: Antifungal activity against Aspergillus fumigatus 7544 assessed as reduction in fungal growth incubated for 5 to 7 days by NCCLS based assay; assay type: functional; details: time 5-7 day
[14] = tested on: Nakaseomyces glabratus; assay: Antifungal activity against Candida glabrata 537 assessed as reduction in fungal growth incubated for 72 hrs by NCCLS based assay; assay type: functional
[15] = tested on: Bacillus subtilis; assay: Antibacterial activity against Bacillus subtilis MTCC 441 assessed as reduction in bacterial growth; assay type: functional
[16] = tested on: Pseudomonas aeruginosa; assay: Antibacterial activity against Pseudomonas aeruginosa MTCC 1034 assessed as reduction in bacterial growth; assay type: functional
[17] = tested on: Staphylococcus aureus; assay: Antibacterial activity against methicillin resistant Staphylococcus aureus incubated for 20 hrs by broth microdilution method; assay type: functional
[18] = tested on: Escherichia coli; assay: Antibacterial activity against Escherichia coli RCMB 010052 assessed as diameter of inhibition zone incubated for 24 hrs by well diffusion assay; assay type: functional
[19] = tested on: Staphylococcus aureus; assay: Antibacterial activity against Staphylococcus aureus assessed as diameter of inhibition zone incubated for 24 hrs by well diffusion assay; assay type: functional
[20] = tested on: Bacillus subtilis; assay: Antibacterial activity against Bacillus subtilis RCMB 010069 assessed as diameter of inhibition zone incubated for 24 hrs by well diffusion assay; assay type: functional
[21] = tested on: Proteus vulgaris; assay: Antibacterial activity against Proteus vulgaris RCMB 004 assessed as diameter of inhibition zone incubated for 24 hrs by well diffusion assay; assay type: functional
[22] = tested on: Aspergillus flavus; assay: Antifungal activity against Aspergillus flavus assessed as diameter of inhibition zone incubated for 24 hrs by well diffusion assay; assay type: functional
[23] = tested on: Geotrichum candidum; assay: Antifungal activity against Geotrichum candidum RCMB 052006 assessed as diameter of inhibition zone incubated for 24 hrs by well diffusion assay; assay type: functional
[24] = tested on: Candida albicans; assay: Antifungal activity against Candida albicans ATCC 90028 assessed as growth inhibition incubated for 24 hrs; assay type: functional
[25] = tested on: Candida albicans; assay: Antifungal activity against Candida albicans assessed as fungal growth inhibition by CLSI based method; assay type: functional
[26] = tested on: Cryptococcus neoformans; assay: Antifungal activity against Cryptococcus neoformans assessed as fungal growth inhibition by CLSI based method; assay type: functional
[27] = tested on: Bacillus subtilis; assay: Antibacterial activity against Bacillus subtilis ATCC 6633 assessed as reduction in microbial growth; assay type: functional
[28] = tested on: Staphylococcus aureus; assay: Antibacterial activity against Staphylococcus aureus ATCC 6538p assessed as reduction in microbial growth; assay type: functional
[29] = tested on: Salmonella typhimurium; assay: Antibacterial activity against Salmonella typhimurium SL1344 assessed as reduction in microbial growth; assay type: functional, Salmonella enterica subsp. enterica serovar Typhimurium; details: Salmonella enterica
[30] = tested on: Micrococcus luteus; assay: Antibacterial activity against Micrococcus luteus IFC 12708 assessed as reduction in microbial growth; assay type: functional
[31] = tested on: Proteus vulgaris; assay: Antibacterial activity against Proteus vulgaris ATCC 3851 assessed as reduction in microbial growth; assay type: functional
[32] = tested on: Escherichia coli; assay: Antibacterial activity against Escherichia coli ATCC 25922 assessed as reduction in microbial growth; assay type: functional

- MIC [1]: 2 µg/mL (≈ 4.13 µM)
- MIC [2]: 8 µg/mL (≈ 16.5 µM)
- MIC [3]: 2 µg/mL (≈ 4.13 µM)
- MIC [4]: 1 µg/mL (≈ 2.07 µM)
- MIC [5]: 4 µg/mL (≈ 8.26 µM)
- MIC [6]: 2 µg/mL (≈ 4.13 µM)
SMILES: O=c1cc(-c2ccccc2)c2cc(Cl)ccc2n1Cc1nnc2n1N=C(c1ccccc1)CS2

SMILES: CCOc1cccc(-n2cc(C(C)N3C(=O)C(=O)c4ccccc43)nn2)c1 (configuration not stated)
- diameter of the inhibition zone (DIZ) [7]: 10 mm

- MIC80 [8]: 0.125 µg/mL (≈ 0.26 µM)
- MIC80 [9]: 2 µg/mL (≈ 4.16 µM)
- MIC80 [10]: 0.062 µg/mL (≈ 0.129 µM)
- MIC80 [11]: 1 µg/mL (≈ 2.08 µM)
- MIC80 [12]: 1 µg/mL (≈ 2.08 µM)
- MIC80 [13]: 4 µg/mL (≈ 8.33 µM)
- MIC80 [14]: 0.125 µg/mL (≈ 0.26 µM)
SMILES: C[C@@H](OCc1cc(-c2c(F)cc(F)cc2F)no1)[C@](O)(Cn1cncn1)c1ccc(F)cc1F

SMILES: COCCOCCOCCOCCOC(=O)c1cc(C(=O)OCCOCCOCCOC)cc(-n2cc(CN3C(=O)C(=O)c4ccccc43)nn2)c1
- diameter of the inhibition zone (DIZ) [7]: 12 mm

- MIC [15]: 1.25 µg/mL (≈ 3.95 µM)
- MIC [16]: 1.25 µg/mL (≈ 3.95 µM)
SMILES: C=CCCC1CC(=O)N1Cc1cn(-c2cccc(Cl)c2)nn1 (configuration not stated)

SMILES: COc1cc(/C=C/c2ccc(OCc3cn(CCCCC(=O)O)nn3)cc2)cc(OC)c1
- MIC [17]: 78.1 µg/mL (≈ 179 µM)

SMILES: Cc1c(-c2cc(-c3ccccn3)nc(S)n2)nnn1-c1ccc(-n2nnc(-c3cc(-c4ccccn4)nc(S)n3)c2C)cc1
- diameter of the inhibition zone (DIZ) [18]: 35.2 mm
- diameter of the inhibition zone (DIZ) [19]: 23.3 mm
- diameter of the inhibition zone (DIZ) [20]: 36.2 mm
- diameter of the inhibition zone (DIZ) [21]: 23.3 mm
- diameter of the inhibition zone (DIZ) [22]: 24.02 mm
- diameter of the inhibition zone (DIZ) [23]: 26.3 mm

SMILES: CCCNC(=O)c1nnn(-c2ccc(Br)cc2)c1C
- growth inhibition (GI) [24]: 13.2%

SMILES: Cc1c(-c2cc(-c3c[nH]c4ccccc34)nc(NN)n2)nnn1-c1ccc(-n2nnc(-c3cc(-c4c[nH]c5ccccc45)nc(NN)n3)c2C)cc1
- diameter of the inhibition zone (DIZ) [18]: 33.9 mm
- diameter of the inhibition zone (DIZ) [19]: 20.9 mm
- diameter of the inhibition zone (DIZ) [20]: 41.3 mm
- diameter of the inhibition zone (DIZ) [21]: 26.9 mm
- diameter of the inhibition zone (DIZ) [22]: 21.3 mm
- diameter of the inhibition zone (DIZ) [23]: 24.4 mm

- MIC [25]: 0.5 µg/mL (≈ 1.35 µM)
- MIC [26]: 0.5 µg/mL (≈ 1.35 µM)
SMILES: O=C(c1ccc(F)cc1)C(C(c1ccccc1)c1ccccc1)n1cncn1 (configuration not stated)

SMILES: CCCCNC(=O)c1nnn(-c2ccc(C)cc2)c1CCC
- growth inhibition (GI) [24]: 21.2%

- MIC [15]: 1.25 µg/mL (≈ 3.82 µM)
- MIC [16]: 1.25 µg/mL (≈ 3.82 µM)
SMILES: C=CCCC1CC(=O)N1Cc1cn(-c2ccc([N+](=O)[O-])cc2)nn1 (configuration not stated)

- MIC [27]: 1.56 µg/mL
- MIC [28]: 1.56 µg/mL
- MIC [29]: 1.56 µg/mL
- MIC [30]: 1.56 µg/mL
- MIC [31]: 1.56 µg/mL
- MIC [32]: 1.56 µg/mL
SMILES: Cc1c(-c2nn(-c3ccccc3)cc2C2SCC(=O)N2c2ccc(F)cc2)nnn1-c1ccccc1 (configuration not stated)

- MIC80 [8]: 0.031 µg/mL (≈ 0.0698 µM)
- MIC80 [9]: 1 µg/mL (≈ 2.25 µM)
- MIC80 [10]: 0.031 µg/mL (≈ 0.0698 µM)
- MIC80 [11]: 0.5 µg/mL (≈ 1.13 µM)
- MIC80 [12]: 0.5 µg/mL (≈ 1.13 µM)
- MIC80 [13]: 4 µg/mL (≈ 9 µM)
- MIC80 [14]: 0.125 µg/mL (≈ 0.281 µM)
SMILES: C[C@@H](OCc1cc(-c2ccc(F)cc2)no1)[C@](O)(Cn1cncn1)c1ccc(F)cc1F

- MIC [27]: 1.56 µg/mL
- MIC [28]: 1.56 µg/mL
- MIC [29]: 1.56 µg/mL
- MIC [30]: 1.56 µg/mL
- MIC [31]: 1.56 µg/mL
- MIC [32]: 1.56 µg/mL
SMILES: COc1ccc(N2C(=O)CSC2c2cn(-c3ccccc3)nc2-c2nnn(-c3ccccc3)c2C)cc1 (configuration not stated)

SMILES: COc1cc(/C=C/c2ccc(OCc3cn(CCC(=O)O)nn3)cc2)cc(OC)c1
- MIC [17]: 625 µg/mL (≈ 1530 µM)

- MIC [1]: 2 µg/mL (≈ 4.28 µM)
- MIC [2]: 4 µg/mL (≈ 8.56 µM)
- MIC [3]: 8 µg/mL (≈ 17.1 µM)
- MIC [4]: 2 µg/mL (≈ 4.28 µM)
- MIC [5]: 8 µg/mL (≈ 17.1 µM)
- MIC [6]: 4 µg/mL (≈ 8.56 µM)
SMILES: O=c1cc(-c2ccccc2)c2cc(F)ccc2n1Cc1nnc2n1N=C(c1ccccc1)CS2

SMILES: CC(c1cn(-c2cnc(-c3ccccc3)c(-c3ccccc3)n2)nn1)N1C(=O)C(=O)c2ccccc21 (configuration not stated)
- diameter of the inhibition zone (DIZ) [7]: 6 mm

SMILES: Cc1c(-c2cc(-c3c[nH]c4ccccc34)[nH]n2)nnn1-c1ccc(-n2nnc(-c3cc(-c4c[nH]c5ccccc45)[nH]n3)c2C)cc1
- diameter of the inhibition zone (DIZ) [18]: 28.4 mm
- diameter of the inhibition zone (DIZ) [19]: 19.3 mm
- diameter of the inhibition zone (DIZ) [20]: 33.5 mm
- diameter of the inhibition zone (DIZ) [21]: 19.2 mm
- diameter of the inhibition zone (DIZ) [22]: 19.5 mm
- diameter of the inhibition zone (DIZ) [23]: 23.9 mm

SMILES: Cc1c(C(=O)/C=C/c2cccnc2)nnn1-c1ccc(-n2nnc(C(=O)/C=C/c3cccnc3)c2C)cc1
- diameter of the inhibition zone (DIZ) [18]: 23.7 mm
- diameter of the inhibition zone (DIZ) [19]: 17.3 mm
- diameter of the inhibition zone (DIZ) [20]: 29.3 mm
- diameter of the inhibition zone (DIZ) [21]: 17.8 mm
- diameter of the inhibition zone (DIZ) [22]: 18.03 mm
- diameter of the inhibition zone (DIZ) [23]: 19.3 mm

SMILES: COc1cc(/C=C/c2ccc(OCc3cn(-c4ccc(C(=O)O)cc4)nn3)cc2)cc(OC)c1
- MIC [17]: 1.2 µg/mL (≈ 2.62 µM)

SMILES: COc1cc([N+](=O)[O-])c(OC)cc1-n1cc(C(C)N2C(=O)C(=O)c3ccccc32)nn1 (configuration not stated)
- diameter of the inhibition zone (DIZ) [7]: 9 mm
